Consider two compounds from BindingDB's records for doi:10.1021/acschembio.7b00707 (Istituto Italiano di Tecnologia, 2017).

This assay concerns the target Breast cancer type 2 susceptibility protein/DNA repair protein RAD51 homolog 1 (Homo sapiens, UniProt P51587+Q06609). The assay can be described thus: ELISA assay. An excerpt: This assay is an efficient tool for directly measuring inhibition of the BRC4−Rad51 interaction, at a molecular level, which is described by Rajendra et al.
For orientation: An ELISA detects its analyte on a solid surface through an enzyme-linked reagent.

Chain of Breast cancer type 2 susceptibility protein/DNA repair protein RAD51 homolog 1 (P51587 whole entry V2466A): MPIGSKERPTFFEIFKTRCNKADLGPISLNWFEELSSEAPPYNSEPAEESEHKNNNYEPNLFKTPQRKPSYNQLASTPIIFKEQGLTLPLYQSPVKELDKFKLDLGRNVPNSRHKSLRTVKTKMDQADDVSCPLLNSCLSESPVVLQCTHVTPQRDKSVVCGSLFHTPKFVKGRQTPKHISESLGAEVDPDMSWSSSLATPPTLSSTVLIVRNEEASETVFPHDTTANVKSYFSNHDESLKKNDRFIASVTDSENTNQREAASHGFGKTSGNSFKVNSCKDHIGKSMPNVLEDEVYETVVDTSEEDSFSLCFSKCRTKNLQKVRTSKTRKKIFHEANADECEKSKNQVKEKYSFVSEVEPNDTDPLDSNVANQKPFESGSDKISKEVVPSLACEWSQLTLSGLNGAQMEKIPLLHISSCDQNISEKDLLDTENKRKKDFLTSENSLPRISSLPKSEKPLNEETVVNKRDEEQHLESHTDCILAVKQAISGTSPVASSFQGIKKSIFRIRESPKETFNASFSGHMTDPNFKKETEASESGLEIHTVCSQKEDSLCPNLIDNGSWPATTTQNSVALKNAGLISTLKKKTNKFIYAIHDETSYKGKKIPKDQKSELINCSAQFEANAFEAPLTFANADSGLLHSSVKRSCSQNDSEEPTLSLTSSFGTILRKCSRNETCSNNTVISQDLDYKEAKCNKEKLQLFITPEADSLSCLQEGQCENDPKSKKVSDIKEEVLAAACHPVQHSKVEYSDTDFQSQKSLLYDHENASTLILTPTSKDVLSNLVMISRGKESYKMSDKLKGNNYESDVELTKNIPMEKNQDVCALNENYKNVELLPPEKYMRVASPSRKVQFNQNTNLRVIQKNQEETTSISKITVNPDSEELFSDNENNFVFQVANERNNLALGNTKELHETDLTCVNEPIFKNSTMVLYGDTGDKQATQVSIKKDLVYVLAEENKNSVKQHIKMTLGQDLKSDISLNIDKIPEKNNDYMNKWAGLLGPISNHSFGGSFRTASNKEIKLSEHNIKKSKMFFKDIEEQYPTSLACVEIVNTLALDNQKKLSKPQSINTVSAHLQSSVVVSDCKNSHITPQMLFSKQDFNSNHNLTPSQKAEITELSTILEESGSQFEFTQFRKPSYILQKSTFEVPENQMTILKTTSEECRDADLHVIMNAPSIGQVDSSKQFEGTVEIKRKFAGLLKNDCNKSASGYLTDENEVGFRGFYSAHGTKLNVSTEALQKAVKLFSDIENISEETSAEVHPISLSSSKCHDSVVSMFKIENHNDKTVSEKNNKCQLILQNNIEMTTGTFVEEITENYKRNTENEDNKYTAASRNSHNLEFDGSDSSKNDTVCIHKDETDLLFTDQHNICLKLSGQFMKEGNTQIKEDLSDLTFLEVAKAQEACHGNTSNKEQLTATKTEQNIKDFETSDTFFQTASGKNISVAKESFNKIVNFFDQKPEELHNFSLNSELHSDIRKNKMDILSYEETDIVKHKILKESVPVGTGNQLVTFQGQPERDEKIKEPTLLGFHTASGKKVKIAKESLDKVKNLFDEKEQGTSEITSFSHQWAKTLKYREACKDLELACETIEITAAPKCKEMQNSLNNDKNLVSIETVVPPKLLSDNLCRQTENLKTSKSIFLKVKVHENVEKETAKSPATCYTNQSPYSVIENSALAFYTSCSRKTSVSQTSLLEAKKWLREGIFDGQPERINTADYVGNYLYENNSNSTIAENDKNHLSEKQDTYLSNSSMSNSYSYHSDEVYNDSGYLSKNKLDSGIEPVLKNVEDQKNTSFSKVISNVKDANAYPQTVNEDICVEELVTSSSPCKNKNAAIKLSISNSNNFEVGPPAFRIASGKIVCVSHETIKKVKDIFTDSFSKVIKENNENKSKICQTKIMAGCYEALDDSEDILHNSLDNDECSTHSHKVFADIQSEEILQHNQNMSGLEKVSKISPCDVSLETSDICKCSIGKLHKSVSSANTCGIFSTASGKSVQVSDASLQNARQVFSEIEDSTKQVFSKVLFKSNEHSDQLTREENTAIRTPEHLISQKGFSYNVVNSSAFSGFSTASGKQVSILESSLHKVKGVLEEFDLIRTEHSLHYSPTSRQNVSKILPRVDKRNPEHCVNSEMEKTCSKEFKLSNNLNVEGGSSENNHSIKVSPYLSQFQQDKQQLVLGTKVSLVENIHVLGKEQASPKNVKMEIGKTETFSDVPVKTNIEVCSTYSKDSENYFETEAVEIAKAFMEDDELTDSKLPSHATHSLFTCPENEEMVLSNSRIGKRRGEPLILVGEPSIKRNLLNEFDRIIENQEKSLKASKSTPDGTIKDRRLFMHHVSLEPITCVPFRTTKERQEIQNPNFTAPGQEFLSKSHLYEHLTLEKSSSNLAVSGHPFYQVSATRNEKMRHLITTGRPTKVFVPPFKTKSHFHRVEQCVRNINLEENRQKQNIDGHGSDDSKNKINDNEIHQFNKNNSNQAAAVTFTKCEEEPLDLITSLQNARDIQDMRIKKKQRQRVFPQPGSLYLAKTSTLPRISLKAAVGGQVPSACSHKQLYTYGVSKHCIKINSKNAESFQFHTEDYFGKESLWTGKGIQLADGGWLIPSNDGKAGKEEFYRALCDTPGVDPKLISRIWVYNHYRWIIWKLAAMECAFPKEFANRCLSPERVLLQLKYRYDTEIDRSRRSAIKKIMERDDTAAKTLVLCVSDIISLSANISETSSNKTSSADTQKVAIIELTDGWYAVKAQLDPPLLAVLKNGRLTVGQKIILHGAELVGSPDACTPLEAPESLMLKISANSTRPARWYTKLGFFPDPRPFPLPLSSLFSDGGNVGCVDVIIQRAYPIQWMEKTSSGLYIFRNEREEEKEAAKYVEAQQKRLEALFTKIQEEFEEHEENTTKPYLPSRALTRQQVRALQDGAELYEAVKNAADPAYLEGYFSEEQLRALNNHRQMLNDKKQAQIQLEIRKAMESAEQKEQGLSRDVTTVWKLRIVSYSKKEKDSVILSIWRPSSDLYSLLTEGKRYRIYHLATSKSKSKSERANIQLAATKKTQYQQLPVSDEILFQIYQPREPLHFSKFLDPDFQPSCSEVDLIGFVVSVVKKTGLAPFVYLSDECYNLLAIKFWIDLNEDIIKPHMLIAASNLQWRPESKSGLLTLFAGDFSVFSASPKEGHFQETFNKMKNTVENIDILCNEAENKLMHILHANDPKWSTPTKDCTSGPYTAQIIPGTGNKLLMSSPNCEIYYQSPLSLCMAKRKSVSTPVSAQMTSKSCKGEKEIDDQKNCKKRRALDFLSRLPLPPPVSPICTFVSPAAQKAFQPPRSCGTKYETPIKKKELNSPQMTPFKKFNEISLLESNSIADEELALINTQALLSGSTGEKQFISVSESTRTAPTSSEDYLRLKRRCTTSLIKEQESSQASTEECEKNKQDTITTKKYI
Chain of Breast cancer type 2 susceptibility protein/DNA repair protein RAD51 homolog 1 (Q06609 whole entry): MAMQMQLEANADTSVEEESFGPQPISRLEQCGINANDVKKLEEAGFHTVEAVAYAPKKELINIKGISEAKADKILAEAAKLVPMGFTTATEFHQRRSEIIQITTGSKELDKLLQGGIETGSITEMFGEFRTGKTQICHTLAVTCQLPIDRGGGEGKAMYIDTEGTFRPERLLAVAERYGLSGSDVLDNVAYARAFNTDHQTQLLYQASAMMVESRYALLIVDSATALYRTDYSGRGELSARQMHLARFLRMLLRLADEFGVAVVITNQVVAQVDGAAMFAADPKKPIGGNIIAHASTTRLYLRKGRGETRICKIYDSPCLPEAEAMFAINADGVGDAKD

Compound `O=C(CSc1nnc(Cn2c(=O)sc3ccccc32)n1CCCc1ccccc1)NC1CCCC1` [N-cyclopentyl-2-((5-((2-oxobenzo[d]thiazol-3(2H)-yl)methyl)-4-phenpropyl-4H-1,2,4-triazol-3-yl)thio)acetamide] gave an EC50 of 25 µM.
For `O=C(CSc1nnc(Cn2c(=O)sc3ccccc32)n1CCc1ccccc1)NC1CCCC1` [F0665-0303], a half-maximal effect (EC50) was put at 53 µM.

By EC50 is commonly meant the concentration needed to bring the measured effect to its halfway point. Low readings indicate a more potent agent, high ones a less potent agent.
